# Reference: PubChem BioAssay AID504322 (Emory University Molecular Libraries Screening Center, 2011)
# Activity calls are given as the source filed them. The rule behind the calls is not given here.
# Tested on: CHOP reporter cell assay, percent of control
# Test: CHOP reporter inhibitor potency, dose response, cell-based (AID 504322);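 note: CHO cells carrying a CHOP reporter stimulated with tunicamycin to induce ER stress; potency is for inhibition of the stress-induced reporter signal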
row,Structure (SMILES),IC50
1,CC(C)Cn1c(=O)c2ccccc2n2c(SCC(=O)N3c4ccccc4CC3C)nnc12 (stereo not drawn),> 10 µM (inactive)
2,CN1CCN(c2ccc(-c3ccc4ccccc4n3)cc2)CC1,< 0.16 µM (inactive)
3,CCc1nc2c(cnn2-c2ccc(Cl)cc2)c(=O)n1-c1ccc(OC)cc1,8.14 µM (inactive)
4,CCCOC(=O)c1ccc(Oc2cn[nH]c2-c2ccc(OC)cc2O)cc1,9.32 µM (inactive)
5,CC(C)CCSc1nc2c(c(=O)[nH]c(=O)n2C)n1CCCc1ccccc1,5.19 µM
6,COc1ccc(/C=C2/SC(=S)N(CCCC(=O)Nc3ccc(O)cc3)C2=O)cc1,0.25 µM
7,OC(c1cccc(OCc2ccccc2)c1)c1nnc(-c2ccccc2)o1 (stereo not drawn),> 10 µM (inactive)
8,COc1ccc(C(=O)/C=C/C(=O)N(CC(=O)NCCC(C)C)Cc2cccs2)c(O)c1,9.55 µM (inactive)
9,O=C1C=CC(O)(c2cc(=O)c3c(O)cc(O)cc3o2)C=C1,2.58 µM
10,O=C(Cn1c(C(F)(F)F)nc2ccccc21)N=Nc1c(O)[nH]c2ccc(Br)cc12,> 10 µM (inactive)
11,C[C@H](NC(=O)c1nc[nH]c1C(=O)N[C@@H](Cc1ccccc1)C(=O)OC(C)(C)C)C(=O)OC(C)(C)C,5.25 µM (inactive)
12,Cc1cc(-c2[nH]nc3c2C(c2ccc(Cl)cc2)C(C#N)=C(N)O3)c(C)s1 (stereo not drawn),7.25 µM (inactive)
13,O=c1c(Cl)nc2cc(Cl)ccc2n1CCNc1ncc(C(F)(F)F)cc1Cl,2.49 µM
14,O=C(Nc1ccc(Oc2c(F)c(F)c(F)c(F)c2F)cc1)OC1CCN2Cc3ccccc3N=C12 (stereo not drawn),8.37 µM (inactive)
15,O=C(COc1ccc(Cl)cc1Cl)Nc1ccccn1,2.43 µM
16,COC(=O)c1sc(-c2ccc(C(C)(C)C)cc2)cc1NC(=O)c1ccccc1C(=O)O,8.29 µM (inactive)
17,O=C1CC(c2ccco2)CC(O)=C1C=Nc1ccccc1-c1ccccc1 (stereo not drawn),2.84 µM (inactive)
18,COc1cc(OC)nc(-n2ncc(Br)c(Br)c2=O)n1,1.93 µM
19,CCCc1cc(C(=O)Cc2ccc(F)cc2)c(O)cc1O,5.98 µM (inactive)
20,CCOC(=O)C(NC(=O)Nc1cccc(C)n1)(OCC(F)(F)F)C(F)(F)F (stereo not drawn),> 10 µM (inactive)
21,CN(C)c1ccc(/C=C/c2ccc3c4ccccc4ccc3[n+]2-c2ccccc2)cc1,1.14 µM (inactive)
22,CC1CCc2cc(F)ccc2N1C(=O)CSc1nnc2c(n1)[nH]c1ccc(F)cc12 (stereo not drawn),9.19 µM (inactive)
23,Cc1ccc(-c2cc3c(nn2)-c2ccccc2C3=O)cc1,6.03 µM (inactive)
24,Cc1cccc(NC(=O)/C(C#N)=C/c2cn(CC(=O)NCc3ccco3)c3ccccc23)c1C,> 10 µM (inactive)

row,Structure (SMILES),IC50
1,CCOc1cc(CNc2ccc(O)cc2)ccc1OCc1ccc(Cl)cc1Cl,1.72 µM
2,C=C(C)COc1ccc(-c2[nH]ncc2Oc2ccccc2OCC)c(O)c1,1.94 µM
3,O=C(Nc1ccc(Oc2ccccc2)cc1)C1CCN(c2c3c(nc4ncnn24)CCC3)CC1,> 10 µM (inactive)
4,O=C(CN1C(=O)c2ccccc2S1(=O)=O)c1ccc2c(c1)OCCCO2,0.34 µM (inactive)
5,CCOc1cc(S(=O)(=O)Nc2ccccc2CC)ccc1Cl,7 µM (inactive)
6,COc1ccc(C(C(=O)NC2CCCCC2)N(C(=O)CCl)c2cccc(Cl)c2)cc1 (stereo not drawn),9.57 µM (inactive)
7,Cc1ccc(NP(=O)(Oc2ccccc2F)Oc2ccccc2F)cc1,5.26 µM (inactive)
8,O=C(/C=C/Sc1ncn[nH]1)c1ccc(Cl)cc1,> 10 µM (inactive)
9,CCCCn1c(NS(=O)(=O)c2ccccc2)c(S(=O)(=O)c2ccc(C)cc2)c2nc3ccccc3nc21,9.67 µM (inactive)
10,CC(C)Cn1c(=O)[nH]c(=O)c2c(C(F)(F)F)cc(-c3ccccc3)nc21,> 10 µM (inactive)
11,CCC(C)(C)NC(=O)C(c1cccn1C)N(C(=O)Cn1nnc2ccccc21)c1ccc(F)cc1 (stereo not drawn),> 10 µM (inactive)
12,Cn1ncc2c(O/N=C(\N)c3ccc(C(C)(C)C)cc3)ncnc21,4.27 µM
13,C=C(C)COc1ccc(-c2n[nH]c(C)c2-c2ccccc2OC)c(O)c1,> 10 µM (inactive)
14,CC(C)(C)c1ccc(NC(=O)Nc2ccc(F)cc2)cc1,> 10 µM (inactive)
15,CCCNC(=O)c1nnsc1S(=O)c1ccc(Cl)cc1 (stereo not drawn),5.55 µM (inactive)
16,COc1ccccc1C(=O)NC(=Nc1nc2ccccc2o1)NC(=O)c1ccccc1OC,9.43 µM (inactive)
17,NC(=O)c1ccc(C(F)(F)F)n(Cc2c(Cl)cccc2Cl)c1=O,9.4 µM (inactive)
18,C/C(=C\c1ccco1)C1C(C#N)=C(N)Oc2n[nH]c(-c3ccc(C)cc3)c21 (stereo not drawn),> 10 µM (inactive)
19,COc1cc(OC)cc(-c2nc3ccccc3c(=O)n2OC(=O)c2ccc(Br)cc2)c1,> 10 µM (inactive)
20,CC(C)=CCc1c(O)c(CC=C(C)C)c2c(c1O)C(=O)CC(c1ccc(O)cc1)O2 (stereo not drawn),9.61 µM (inactive)
21,OCCCNc1nccc(-c2cc(Nc3cccc(Cl)c3)ncn2)n1,0.3 µM
22,CCOc1ccc(N(CC(=O)Nc2cccc(Cl)c2)S(=O)(=O)c2c(C)noc2C)cc1,2.02 µM
23,CC(C)Cc1ccc(C(C)C(=O)Nc2nccs2)cc1 (stereo not drawn),> 10 µM (inactive)
24,CCc1ccc(-c2nc(CSCC(=O)NCc3ccco3)c(C)o2)cc1,< 0.16 µM
